Common to all, as to type: cell-based, human
The subject of one assay is H1975 cells. The experiment in a line: proliferation assay (crystal violet, OD595). The settings on record: 16 hours. The procedure: (§1) Proliferation of different cancer cells under control air or 250 ppm CO treatment with or without supplement of 30 µM hemin was determined. Indicated cell lines cell lines were seeded in the 24-well plate in normal growth media. 16 hours later, cells were fixed, stained with crystal violet, and lysed by methanol. OD595 were measured from triplicates of each cell type. Error bars represent SEM. *: P < 0.05, two-sided t-test. Scale bar, 100 µm.
(§2) 6.5 mm Transwell with 8.0 µm Pore Polycarbonate Membrane Insert (Corning, NY, Cat. No. 3422) was used for the cell migration assay (FIG. 1J). After 16 hours of incubation, cells migrated to the opposite side of the upper chambers were fixed with 4% paraformaldehyde, stained with 0.2% crystal violet for 30 min and counted in five fields under × 20 magnification. In parallel, cells were seeded on 24-well plates for proliferation assay. Cells for proliferation control were fixed with 4% paraformaldehyde, stained with 0.2% crystal violet for 30 min and lysed with methanol to release the crystal violet as described by M. Feoktistova, P. Geserick, & M. Leverkus, Cold Spring Harb Protoc 2016, pdb prot087379 (2016). The optical density was measured at 595 nm (OD595). To supplement heme/hemin in the transwell migration assay, 30 µM hemin (MedChemExpress, Monmouth Junction, NJ, Cat. No. HY-19424) was added to both the cell suspension in the upper chambers and the bottom wells.
(§3) To examine whether CO has an effect on tumor cell migration, in vitro transwell migration assays were performed. Various human cancer cell lines, including 3 types of breast cancer (ER^+: MCF7 cells, HER2^+: HCC1954 cells, triple-negative breast cancer (TNBC): MDA-MB-231 cells), pancreatic ductal adenocarcinoma (PDAC) (8988T cells), pancreatic neuroendocrine tumor (PNET) (CM cells), colon cancer (SW480 cells), prostate cancer (22Rv1 cells), liver cancer (HepG2 cells), and lung cancer (H1975 cells) were seeded in the upper chamber of 8-µm porous polycarbonate membranes. Cell migration through the transwell membrane along a serum gradient (Table 1) after 16 hours in the presence or absence of 250 ppm CO were measured.

Another assay concerns SW480 cells. As to the kind of experiment: proliferation assay (crystal violet, OD595). The note with it: 16 hours. The protocol: as §1, §2, §3
Assay [1] concerns intracellular heme/hemin levels. The experiment in a line: heme colorimetric assay of intracellular heme. The procedure:
Cells were grown to 75-80% confluence in 10-cm cell culture plates and collected in 1 ml cold PBS by cell scraper. 10 µl of the cells was transferred to a new tube for protein lysate preparation and protein concentration measurement. The rest of the cells were lysed in Heme extraction buffer (acetone: HCl: water = 25: 1.3: 5) as described by J. Hooda, M. Alam, & L. Zhang, J Vis Exp, e51579 (2015). Heme levels were measured using a heme colorimetric assay kit (BioVision, Milpitas, CA, Cat. No. K672-100) and normalized by the protein concentration of each sample.
To investigate whether 250 ppm CO induces hypoxia, HiF1α protein levels in low-dose CO-treated MCF7/TGL and MDA-MB-231/TGL cells were examined. Compared to the control cells grown in a standard tissue culture incubator, HiF1α protein levels were not changed after 250 ppm CO treatment for 16 hours (FIG. 4A). To identify genes and pathways that were affected by 250 ppm CO, RNA-Seq and gene set enrichment analysis (GESA) of MCF7 and MDA-MB-231 cells were performed after 16 hours in a CO incubator or in a regular cell culture incubator. […] To assess the intracellular heme levels affected by low-dose CO treatment, oxidized heme levels in the form of hemin (Fe^3+ state) were measured because free heme (Fe^2+ state) is readily oxidized and cannot be measured. […]

The test system of assay [2] is MDA-MB-231 cells. The experiment in a line: in vitro transwell migration assay. The note with it: 16 hours. The source says:
MDA-MB-231/TGL cell lines was obtained from Dr. Joan Massagué (Minn, et al, J. Clin. Invest., 115:(1), 44-55 (2005)). CM cell line was obtained from Dr. Paolo Pozzilli (S. Kobayashi et al., Oncogenesis 8, 16 (2019)). MCF7 breast cancer cells and 8988T pancreatic cancer cells were infected with viruses carrying thymidine kinase/green fluorescent protein/luciferase fusion reporter (TGL), which was obtained from Drs. Inna Serganova and Ronald Blasberg (V. Ponomarev et al., European journal of nuclear medicine and molecular imaging 31, 740-751 (2004)). GFP-positive MCF7/TGL and 8999T/TGL cells were enriched by fluorescence-activated cell sorting. H1975, lung adenocarcinoma cell line, was obtained from ATCC (Manassas, VA). […]
6.5 mm Transwell with 8.0 µm Pore Polycarbonate Membrane Insert (Corning, NY, Cat. No. 3422) was used for the cell migration assay (FIG. 1J). After 16 hours of incubation, cells migrated to the opposite side of the upper chambers were fixed with 4% paraformaldehyde, stained with 0.2% crystal violet for 30 min and counted in five fields under × 20 magnification. […] The optical density was measured at 595 nm (OD595). […]
To examine whether CO has an effect on tumor cell migration, in vitro transwell migration assays were performed. […] Cell migration through the transwell membrane along a serum gradient (Table 1) after 16 hours in the presence or absence of 250 ppm CO were measured. […]

Assay [3] has as its system various cancer cell lines. The experiment in a line: proliferation assay, statements across cancer types. The procedure:
as §1
6.5 mm Transwell with 8.0 µm Pore Polycarbonate Membrane Insert (Corning, NY, Cat. No. 3422) was used for the cell migration assay (FIG. 1J). After 16 hours of incubation, cells migrated to the opposite side of the upper chambers were fixed with 4% paraformaldehyde, stained with 0.2% crystal violet for 30 min and counted in five fields under × 20 magnification. In parallel, cells were seeded on 24-well plates for proliferation assay. […] The optical density was measured at 595 nm (OD595). […]
To investigate whether 250 ppm CO induces hypoxia, HiF1α protein levels in low-dose CO-treated MCF7/TGL and MDA-MB-231/TGL cells were examined. […] To assess the intracellular heme levels affected by low-dose CO treatment, oxidized heme levels in the form of hemin (Fe^3+ state) were measured because free heme (Fe^2+ state) is readily oxidized and cannot be measured. […]

Assay [4] deals with MDA-MB-231 cells. The experiment in a line: proliferation assay (crystal violet, OD595). The note with it: 16 hours. The procedure:
as §1, §2
To examine whether CO has an effect on tumor cell migration, in vitro transwell migration assays were performed. […] Cell migration through the transwell membrane along a serum gradient (Table 1) after 16 hours in the presence or absence of 250 ppm CO were measured.
5 × 10^4 MDA-MB-231-TGL cells were seeded in the upper chamber of 8-µm porous polycarbonate membranes with DMEM containing 0% FBS, 0.2 mM L-glutamine and 1% penicillin/streptomycin. […] The optical density was measured at 595 nm (OD595).

[5] abbreviates: 30 µM hemin, with or without 250 ppm CO.

Turning to `[C-]#[O+]` [CO, Carbon monoxide], the cell proliferation entry in the assay with H1975 cells (250 ppm CO, vs control air) was “did not affect”; in the assay with SW480 cells (250 ppm CO, vs control air), “did not affect”; in the assay on MDA-MB-231 cells [4] (MDA-MB-231 cells, 250 ppm CO, vs control air), “did not affect”. Further, the intracellular heme/hemin levels result in assay [1] (MCF7 and MDA-MB-231 cells, 250 ppm CO) was “significantly reduced”. The “cell migration through the transwell membrane” value with MDA-MB-231 cells [2] (MDA-MB-231 cells, 250 ppm CO, serum gradient, vs control air) was “significantly reduced”. In addition, the “cancer cell proliferation across different cancer types” value in assay [3] (250 ppm CO for 16 hours, vs control air) is “does not affect”. In addition, the “inhibitory effect on MDA-MB-231 cell proliferation by seeding density” value in the assay on MDA-MB-231 cells [4] (CO, higher density (6.25 × 10^4 or 12.5 × 10^4 cells per 24-well) compared with lower density (3.125 × 10^4 cells per 24-well)) is given as “greater inhibitory effect”.

For Hemin [reference compound], the “cancer cell proliferation with hemin supplement” value in the assay on H1975 cells (setting [5]) is listed as “did not alter”; in the assay with SW480 cells (setting [5]) it was “did not alter”; in the assay on MDA-MB-231 cells [4] (MDA-MB-231/TGL cells, 30 µM hemin, with or without 250 ppm CO), “did not alter”. In addition, the “intracellular heme levels with hemin supplement” value in assay [1] (30 µM hemin in the medium, CO-treated cells) is “increased”. Also, the “cell migration inhibited by 250 ppm CO (reversal by hemin)” value in the assay with MDA-MB-231 cells [2] (MDA-MB-231/TGL cells, 30 µM hemin in upper and lower chambers + 250 ppm CO) is “significantly reversed”. The “cell proliferation of various cancer cell lines with hemin” value in assay [3] (30 µM hemin in the medium (FIGS. 2C-2E)) is “slightly increased”.

The values above are taken from patent US20230346831A1, “METHODS FOR TREATING […] USING LOW DOSE CARBON MONOXIDE” (priority 2020, published 2023).
